{"source": "patent US10206900B2", "about": "“Treatments for fibrotic diseases” (MOR RESEARCH APPLICATIONS LTD., priority 2013, dated 2019)", "type_in_all_cases": "cell-based", "key": {"RPE cells [1]": {"tested_on": "RPE cells", "assay": "α-SMA expression (immunostaining) upon TGF-β1 stimulation", "conditions": "5Z-7-oxozeaenol 1 μM pretreatment 1 hour, TGF-β1 2.5 ng/ml, serum-free", "method": "FIGS. 2A-2C TAK1 regulates RPE cells EMT phenotype upon TGF-β stimulation. FIG. 2A: RPE cells were serum-starved for 16 hours, pretreated with 5Z-7-oxozeaenol (1 μM) or left untreated for 1 hour. The cells were then treated with TGF-β1 (2.5 ng/ml) as described herein for 24 h and immunostained with α-SMA antibodies (red) and DAPI (blue). Representative photographs of three independent experiments. The histogram in the bottom panel represents quantification of α-SMA antibody pixel intensity. FIG. 2B: RPE cells were serum-starved for 16 hours, then treated with mitomycin C (10 ng/ml) for 3 h. Thereafter, pretreated with 5Z-7-oxozeaenol (1 μM) or Dimethyl sulfoxide (DMSO) for 1 hour. Following this process a scratch was performed in the cell monolayer and the serum free medium was supplemented with TGF-β1 (2.5 ng/ml) or left unsupplemented. Scratches were photo-documented at the indicated times (top panel) and their width was measured using Image-J software. […] Bars are Mean±SD. FIG. 2C: RPE cells were serum-starved for 16 hours then pretreated with 5Z-7-oxozeaenol (1 μM) or SB431542 (10 μM), or DMSO for 1 hour. […] Total MMP-9 activities were processed by gelatin zymography (top panel) and the band intensity values were calculated by Quantity One® 1-D analysis software. […] Data is expressed as the Mean±SD. […]"}, "MMP-9": {"tested_on": "MMP-9", "assay": "MMP-9 activity by gelatin zymography in RPE cell supernatants", "conditions": "RPE cells, pretreatment 1 μM, TGF-β1 2.5 ng/ml, 24 hours; TGF-β1 alone 3.2 fold", "method": "FIGS. 2A-2C TAK1 regulates RPE cells EMT phenotype upon TGF-β stimulation. FIG. 2A: RPE cells were serum-starved for 16 hours, pretreated with 5Z-7-oxozeaenol (1 μM) or left untreated for 1 hour. The cells were then treated with TGF-β1 (2.5 ng/ml) as described herein for 24 h and immunostained with α-SMA antibodies (red) and DAPI (blue). Representative photographs of three independent experiments. The histogram in the bottom panel represents quantification of α-SMA antibody pixel intensity. FIG. 2B: RPE cells were serum-starved for 16 hours, then treated with mitomycin C (10 ng/ml) for 3 h. Thereafter, pretreated with 5Z-7-oxozeaenol (1 μM) or Dimethyl sulfoxide (DMSO) for 1 hour. Following this process a scratch was performed in the cell monolayer and the serum free medium was supplemented with TGF-β1 (2.5 ng/ml) or left unsupplemented. Scratches were photo-documented at the indicated times (top panel) and their width was measured using Image-J software. […] Bars are Mean±SD. FIG. 2C: RPE cells were serum-starved for 16 hours then pretreated with 5Z-7-oxozeaenol (1 μM) or SB431542 (10 μM), or DMSO for 1 hour. […] Total MMP-9 activities were processed by gelatin zymography (top panel) and the band intensity values were calculated by Quantity One® 1-D analysis software. […] Data is expressed as the Mean±SD."}, "E-cadherin": {"tested_on": "E-cadherin", "assay": "E-cadherin immunostaining in RPE cells", "conditions": "1 μM prior to TGF-β1 stimulation", "method": "FIG. 3A: RPE cells were plated on fibronectin-coated glass coverslips, serum-starved for 16 hours, pretreated with 5Z-7-oxozeaenol (1 μM) or SB431542 (10 μM), or DMSO for 1 hour, then treated with or without TGF-β1 for 2 days. Following treatment, the cells were stained with rhodamine-phalloidin (actin fibers-red) and DAPI (blue) and visualized by confocal microscopy. Scale bars: […]. FIG. 3B: Serum-starved RPE cells pretreated with 5Z-7-oxozeaenol (1 μM) or DMSO for 1 hour, and were exposed to TGF-β as in FIG. 3A. Total RNA was extracted at each time point and qPCR was performed. Transcription levels of CTGF were determined after 6 h, 16 h and 24 h. Bars represent the specific mRNA amount relative to GAPDH mRNA in the same samples. All experiments were performed in triplicates. A representative histogram from two independent experiments is shown. FIG. 3C: RPE cells were plated and treated as in FIG. 3A. Following treatment, the cells were immunostained with E-cadherin antibodies (green) and DAPI (blue). Representative photographs of two independent experiments are shown. A recent publication has shown that down-regulation of the cell-cell adhesion protein E-cadherin, was considered a hallmark of EMT in RPE cells ([…] et al., Invest Ophthalmol Vis Sci 2010, 51:2755-2763). […]"}, "RPE cells [2]": {"tested_on": "RPE cells", "assay": "Floating collagen matrix contraction assay in full serum", "conditions": "1 μM, full medium, 24 hours, control cells 50%", "method": "FIG. 5A: RPE cells were pre-treated with or without 5Z-7-oxozeaenol (1 μM) and seeded in collagen lattices in full medium. The experiments were performed in triplicates. Lattices were photo-documented after 24 hours and measured using Image-J software. […] Bars are Mean±SD. The transition of RPE cells to myofibroblasts is characterized, among other aspects, by increased contractile activity (Umazume et al., Invest Ophthalmol Vis Sci 2013, 54:1150-1159; Sakamoto et al., Curr Eye Res 1994, 13:451-459; West-Mays et al., Int J Biochem Cell Biol 2006, 38:1625-1631; Ma et al., Clinical & experimental ophthalmology 2012, 40:e76-86). To examine whether TAK1 is a general regulator of the EMT process affecting cell contractility, floating collagen matrix contraction assay was performed. The test was carried out in full serum with or without TAK1 inhibitor (FIGS. 5A and 5B). While in the control cells significant contraction was observed after 24 hours, reaching 50% of the initial size, TAK1 inhibition impaired the capacity of the cells to contract. The collagen lattice remained nearly 80% from the initial size (FIGS. 5A and B)."}, "p38 [3]": {"tested_on": "p38", "assay": "p38 phosphorylation by immuno-blot in W2b liver hepatocytes", "conditions": "1 μM for 1 hour, TGF-β 2.5 ng/ml", "method": "FIG. 10: Inhibition of TAK1 abolishes the activation of TGF-β cascades in liver cells. TGF-β1 up-regulates-Smad 2/3 and p38 activation and E-cadherin expression via TAK1 activity in hepatic cells. W2B liver hepatocytes cells were treated with or without 5Z-7-oxozeaenol followed by TGF-β treatment and Smad2/3 and p38 phosphorylation patterns were examined by immuno-blots. W2b liver hepatocytes cells were treated with or without 5Z-7-oxozeaenol (1 μM) for 1 hour followed by TGF-β treatment (2.5 ng/ml) for the indicated times. Smad2/3 and p38 phosphorylation patterns were examined by immuno-blots as described above."}, "p38 [4]": {"tested_on": "p38", "assay": "p38 phosphorylation by immuno-blot in HT29 colon cells", "conditions": "HT29 Human colon cells, TGF-β treatment, versus untreated cells", "method": "FIG. 11. Inhibition of TAK1 abolishes the activation of TGF-β cascades in colon cells. TGF-β1 up-regulates-Smad 2/3 and p38 activation via TAK1 activity in colon cells. HT29 Human colon cells were treated with or without 5Z-7-oxozeaenol followed by TGF-β treatment. Smad2/3 and p38 phosphorylation patterns were examined by immuno-blots. HT29 Human colon cells were treated as in the previous examples with or without 5Z-7-oxozeaenol, followed by TGF-β treatment. Inhibition of TAK1 was assayed by observation of Smad2/3 and p38 phosphorylation patterns by immuno-blots."}}, "data": [{"smiles": "COc1cc(O)c2c(c1)/C=C/C[C@H](O)[C@H](O)C(=O)/C=C\\C[C@H](C)OC2=O", "note": "[5Z-7-oxozeaenol]", "values": [{"measurement": "TGF-β1-stimulated α-SMA expression", "setting": "RPE cells [1]", "result": "significantly attenuated"}, {"measurement": "MMP-9 activity, fold higher than the control group", "setting": "MMP-9", "result": 1.59, "unit": "fold"}, {"measurement": "E-cadherin expression upon TGF-β1", "setting": "E-cadherin", "result": "allowing normal E-cadherin expression"}, {"measurement": "collagen lattice area relative to initial size", "setting": "RPE cells [2]", "result": "~80", "unit": "%"}, {"measurement": "p38 activation", "setting": "p38 [3]", "result": "barely detectable"}, {"measurement": "p38 phosphorylation", "setting": "p38 [4]", "result": "significantly inhibited"}]}]}
